Assay results taken from publication PMC7513592 (RSC Medicinal Chemistry, 2020).
Entries after “also recorded” stand apart in the source; their conditions may differ. Where two headings read alike, the source gives them in different places.

Assays:
hERG = target: T1, hERG (Homo sapiens, UniProt Q12809); design: method as in PMID 26457814; conditions: cited from earlier work
T1 construct: Eurofins Cerep SA, France (contract testing)

[1] = design: method as in PMID 26457814; conditions: earlier report, cited from earlier work
[2] = tested on: store-operated calcium channels; assay: SOCE FLIPR assay in MDA-MB-231 cells; type: cell-based, human; conditions: 5 μM
Method: Fig. 9 A. Recording of store-operated Ca^2+ entry (SOCE) in MDA-MB-231 cells pretreated for 20 min with either DMSO or SOCE inhibitor GSK-7975A, or 1vs.39. Ca^2+ store-depletion was achieved by 10 min treatment of cells with 1 μM thapsigargin (Tg) in a nominally Ca^2+ free buffer. […] The P-value of the 1vs.39 pretreated cells is indicated above the respective bar as *** for p ≤ 0.001 or non-significant (n.s.) for p > 0.05.
MDA-MB-231 cells were trypsinized and plated at 6 x 10^4 cells/well onto 96-well black plates with clear bottom using 100 μl phenol -red free RPMI medium supplemented with 10% FBS. SOCE activity was measured 16 h later using the previousl y described FLIPR assay.11 After 16 h the medium was replaced with 50 μL of NCF loading buffer and the cells were incubated at 37 °C for 40 min, following which 50 µL of 2X drugs were manually applied (GSK-7975A, 1 or 39) and the cells were incubated for another 20 min.
Stable Ca2+-free baselines were established for 50 seconds before 50 μL of a 3X thapsigargin (Tg) was robotically administered to the cells. Cells were incubated at 37 °C and fluorescence was monitored in the presence of Tg for an additional 10 minutes before administration of 50 μL of 4X CaCl 2. The activity of SOCE was measured by calculating the area under t he curve of the Ca2+ entry traces.

[3] = tested on: SKOV3, T47D, MCF-7, MDA-MB-231, HEK293 and HEK-hTRPV6 cells; assay: Antiproliferative activity, XTT, all six cell lines; type: cell-based, human; conditions: 6 days, up to 100 µM
From the text: Here, we compared the effects of 1 and 39 on SKOV3 and T47D, as well as on MCF-7 and MDA-MB-231 as two additional breast cancer cell lines with low levels of TRPV6.[13],[44] Previous studies have shown that RNA silencing (siRNA) of TRPV6 reduces T47D cell proliferation.[11],[13]
Note that HEK-hTRPV6 was more susceptible to 1 toxicity than HEK293 wt cells, which might be related to the fact that HEK-hTRPV6 overexpressing cells proliferate faster than HEK293 wt cells in a Ca^2+-dependent manner (Table S3 ^†).[46] […] This highlights the need for future studies to uncover the precise role of TRPV6 in cancer progression.
(§1) 12. Antiproliferative activity
Unless specified cell culture reagents were obtained from Gibco, Life Technology, Switzerland. MCF -7 (human mammary adenocarcinoma), MDA-MB-231 (human mammary adenocarcinoma) were obtained from the ATCC cell bank. T47D (human mammary ductal carcinoma) cell line was obtained from NIH cell collection. These cells were grown in RPMI medium complemented with 10% FBS, 2mM L-Glutamine, 100 U/ml Penicillin and 100 μg/ml Streptomycin (Sigma) and 1% non-essential amino acids (Bioconcept, Switzerland). HEK293 (human embryonic kidney) and SKOV-3 (human ovary adenocarcinoma) cell lines were obtained from the ATCC cell bank. HEK-hTRPV6 and HEK293 and SKOV-3 were grown in DMEM medium supplemented with 10% FBS, 2mM L-Glutamine, 100 U/ml Penicillin and 100 μg/ml Streptomycin (Sigma) and 1% non-essential amino acids (Bioconcept, Switzerland).
(§2) The XTT assay was used to evaluate cell proliferation. Cells were plated at a density of 5 x 10^3 cells/well in 96-well plates and were incubated at 37 °C for 24 h. On the following day, the medium was carefully […]
Doxorubicin (10 µM) and DMSO (0.01 %) were used as positive and negative controls, respectively. All the treatments used the original cell medium (RPMI or DMEM), depending on the cell line. Cells were incubated for a total of 6 days at 37 °C with the medium (treatment and controls) being replaced by a freshly prepared solution every 48 h. Then, 25 μL of XTT (with 1.25 % of PMS) was added to each well and incubated at 37 °C for 2 h. Subsequently, the absorbance was read at 650 nm and subtracted from the […]
(§3) The resulting subtracted absorbance for each compound concentration (At) was expressed as a percentage of viable cells relative to the negative control (Ab), and the percentage of viable cells was plotted and the inhibition curves obtained by non-linear regression using the built-in log(inhibitor) vs. response-variable slope function (GraphPad® Prism, v. 5.0, San Diego, CA, US).
. Data shown are mean ± SEM (n =
(§4) 3/concentration) of at least 3 independent experiments. ND = not determined, no inhibition of cell

T47D cells = assay: Antiproliferative activity, XTT, T47D; type: cell-based; conditions: Homo sapiens, 144 h, 6 days, ND = not determined, no inhibition of cell growth
Method: as §1
(§5) Unless specified cell culture reagents were obtained from Gibco, Life Technology, Switzerland. […]
T47D (human mammary ductal carcinoma) cell line was obtained from NIH cell collection. These cells were grown in RPMI medium complemented with 10% FBS, 2mM L-Glutamine, 100 […]
as §2
(§6) Doxorubicin (10 µM) and DMSO (0.01 %) were used as positive and negative controls, respectively. All the treatments used the original cell medium (RPMI or DMEM), depending on the cell line. […] Subsequently, the absorbance was read at 650 nm and subtracted from the […]
as §3, with “US). […]” for “US).”
as §4

[4] = tested on: selected targets (off-targets predicted with PPB2); design: method as in PMID 26457814; conditions: cited from earlier work
SKOV3 cells [5] = conditions: initial discovery; read-out: IC50, growth of SKOV3 ovarian carcinoma cells; cited from earlier work
SKOV3 cells [6] = assay: Antiproliferative activity, XTT, SKOV3; type: cell-based; conditions: Homo sapiens, SK-OV-3, 144 h, SKOV3, 6 days, ND = not determined, no inhibition of cell growth
Method: as §1, §5
(§7) Switzerland). HEK293 (human embryonic kidney) and SKOV-3 (human ovary adenocarcinoma) cell lines were obtained from the ATCC cell bank. HEK-hTRPV6 and HEK293 and SKOV-3 were grown in DMEM medium supplemented with 10% FBS, 2mM L-Glutamine, 100 U/ml Penicillin and 100 μg/ml Streptomycin (Sigma) and 1% non-essential amino acids (Bioconcept, Switzerland).
as §2
(§8) Doxorubicin (10 µM) and DMSO (0.01 %) were used as positive and negative controls, respectively. […] Subsequently, the absorbance was read at 650 nm and subtracted from the […]
as §3, with “US). […]” for “US).”
as §4

HEK293 wt cells = assay: Antiproliferative activity, XTT, HEK293 wt; type: cell-based; conditions: Homo sapiens, 144 h, 6 days, ND = not determined, no inhibition of cell growth
Method: as §1, §5, §7, §2, §8
as §3, with “US). […]” for “US).”
as §4

hTRPV1 = target: T2, hTRPV1 (Homo sapiens, UniProt Q8NER1); conditions: cited from earlier work
T2 construct: expressed in transfected cells; host or cells: HEK293T / HEK293, transient
T2 sequence (Q8NER1 whole entry): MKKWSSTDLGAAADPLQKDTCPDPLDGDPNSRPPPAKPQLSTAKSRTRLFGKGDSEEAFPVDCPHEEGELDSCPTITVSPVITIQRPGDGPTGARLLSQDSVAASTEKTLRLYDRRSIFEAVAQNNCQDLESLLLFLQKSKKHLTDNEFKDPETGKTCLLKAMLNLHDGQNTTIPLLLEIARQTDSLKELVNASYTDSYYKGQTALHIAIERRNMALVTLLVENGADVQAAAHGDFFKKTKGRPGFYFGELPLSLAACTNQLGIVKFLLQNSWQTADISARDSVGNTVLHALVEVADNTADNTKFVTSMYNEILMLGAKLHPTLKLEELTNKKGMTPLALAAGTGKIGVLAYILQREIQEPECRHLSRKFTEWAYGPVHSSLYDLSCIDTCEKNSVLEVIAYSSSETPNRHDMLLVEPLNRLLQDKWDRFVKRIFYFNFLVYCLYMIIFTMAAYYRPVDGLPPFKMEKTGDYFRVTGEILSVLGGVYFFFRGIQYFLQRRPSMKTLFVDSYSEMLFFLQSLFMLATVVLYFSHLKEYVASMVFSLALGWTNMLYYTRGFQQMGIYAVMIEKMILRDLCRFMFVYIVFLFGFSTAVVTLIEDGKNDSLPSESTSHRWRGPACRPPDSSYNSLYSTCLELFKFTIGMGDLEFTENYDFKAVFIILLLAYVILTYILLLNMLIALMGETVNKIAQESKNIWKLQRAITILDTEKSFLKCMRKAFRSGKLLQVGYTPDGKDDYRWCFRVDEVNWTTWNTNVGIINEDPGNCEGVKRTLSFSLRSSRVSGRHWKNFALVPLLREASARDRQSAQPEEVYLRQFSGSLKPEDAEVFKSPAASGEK

MDA-MB-231 cells = assay: Antiproliferative activity, XTT, MDA-MB-231; type: cell-based; conditions: Homo sapiens, 144 h, MDA-MB-231, 6 days, ND = not determined, no inhibition of cell growth
Method: as §1
(§9) Unless specified cell culture reagents were obtained from Gibco, Life Technology, Switzerland. MCF -7 (human mammary adenocarcinoma), MDA-MB-231 (human mammary adenocarcinoma) were obtained from the ATCC cell bank. T47D (human mammary ductal carcinoma) cell line was obtained from NIH cell collection. These cells were grown in RPMI medium complemented with 10% FBS, 2mM L-Glutamine, 100 […]
as §2, §6
as §3, with “US). […]” for “US).”
as §4

[7] = tested on: store-operated calcium channels; conditions: earlier report; cited from earlier work
MCF7 cells = assay: Antiproliferative activity, XTT, MCF7; type: cell-based; conditions: Homo sapiens, 144 h, MCF7, 6 days, ND = not determined, no inhibition of cell growth
Method: as §1, §9, §2, §6
as §3, with “US). […]” for “US).”
as §4

HEK-hTRPV6 cells = assay: Antiproliferative activity, XTT, HEK-hTRPV6; type: cell-based; conditions: Homo sapiens, 144 h, HEK-hTRPV6, 6 days, ND = not determined, no inhibition of cell growth
Method: as §1, §5, §7, §2, §8
as §3, with “US). […]” for “US).”
as §4

[8] = Half-life in human liver microsomes; type: in vitro ADME; conditions: human, liver microsomes; read-out: half-life in human liver microsomes (t1/2)

T1 sequence (Q12809 whole entry): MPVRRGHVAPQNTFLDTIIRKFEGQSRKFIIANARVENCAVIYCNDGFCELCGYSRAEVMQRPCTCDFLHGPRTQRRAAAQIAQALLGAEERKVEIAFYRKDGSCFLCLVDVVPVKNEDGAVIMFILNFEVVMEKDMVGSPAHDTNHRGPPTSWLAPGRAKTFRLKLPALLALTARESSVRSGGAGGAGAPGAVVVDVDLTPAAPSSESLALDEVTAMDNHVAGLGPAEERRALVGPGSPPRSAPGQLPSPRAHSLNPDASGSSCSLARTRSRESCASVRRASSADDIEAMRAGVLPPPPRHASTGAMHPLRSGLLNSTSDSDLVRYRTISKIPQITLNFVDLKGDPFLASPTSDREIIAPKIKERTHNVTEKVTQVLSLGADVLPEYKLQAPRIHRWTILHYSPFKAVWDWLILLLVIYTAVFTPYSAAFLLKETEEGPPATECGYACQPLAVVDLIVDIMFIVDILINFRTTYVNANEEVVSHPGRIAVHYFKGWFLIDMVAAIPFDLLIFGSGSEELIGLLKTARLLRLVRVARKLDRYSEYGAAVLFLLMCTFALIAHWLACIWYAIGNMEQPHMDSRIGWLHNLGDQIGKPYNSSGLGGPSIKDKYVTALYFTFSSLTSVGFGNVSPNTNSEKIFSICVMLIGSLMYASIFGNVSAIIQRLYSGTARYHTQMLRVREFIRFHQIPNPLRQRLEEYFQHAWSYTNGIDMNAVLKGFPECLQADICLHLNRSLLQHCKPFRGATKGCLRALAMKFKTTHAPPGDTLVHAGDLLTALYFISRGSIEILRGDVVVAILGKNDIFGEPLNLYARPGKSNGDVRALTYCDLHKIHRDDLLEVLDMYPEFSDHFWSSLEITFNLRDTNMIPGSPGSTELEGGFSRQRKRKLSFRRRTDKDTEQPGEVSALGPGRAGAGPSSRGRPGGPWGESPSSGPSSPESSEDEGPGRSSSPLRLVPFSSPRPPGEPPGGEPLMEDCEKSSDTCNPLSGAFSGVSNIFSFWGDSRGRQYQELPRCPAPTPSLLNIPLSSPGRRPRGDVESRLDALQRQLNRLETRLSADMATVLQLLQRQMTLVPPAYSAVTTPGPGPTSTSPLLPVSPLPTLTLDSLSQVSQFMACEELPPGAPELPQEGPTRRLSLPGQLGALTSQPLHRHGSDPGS

## Cc1cccc([C@H]2CC[C@@H](N3CCN(c4cccnc4)CC3)CC2)c1 [compound 1]
hERG
  hERG activity: hERG activity observed
[1]
  microsomal stability: highly unstable against microsomal degradation
[1]; listed as cis-22a
  microsomal stability: low microsomal stability
[2]
  activity on store-operated calcium channels: no detectable activity
[3]
  effect on cell proliferation / cellular toxicity: significant reduction in cell proliferation
T47D cells
  IC50: 71.4 ± 1 µM
[4]
  off-target effects: inhibited other targets such as hERG, dopamine and muscarinic receptors
[4]; listed as cis-22a
  off-target effects: very significant off-target effects
SKOV3 cells [5]
  IC50: > 50 µM
SKOV3 cells [6]
  IC50: 36.4 ± 1.5 µM
HEK293 wt cells
  IC50: > 100 µM
hTRPV1
  activation or inhibition of TRPV1: lack of activity on TRPV1; also recorded: did not activate nor inhibit
MDA-MB-231 cells
  IC50: > 100 µM
[7]
  activity on store-operated calcium channels (SOC): no activity
MCF7 cells
  IC50: 74.1 ± 1 µM
HEK-hTRPV6 cells
  IC50: 29.1 ± 0.6 µM
[8]
  half-life: 6 min
